Data on four molecules can be found in US20260034063A1 (Opella Healthcare Group SAS, priority 2023, published 2026).

The subject of data set [1] is Bacteria; Fungus and yeast. Nature of the data set: Preservative system efficacy test (PET), summary statements. It is filed as cell-based. The note with it: for preservative system efficacy test (PET) results: in fexofenadine suspension with EDTA, Ph. Eur and USP criteria. The procedure: (§1) To generate the formulations, the parabens of the existing formulations were replaced with the tested putative paraben replacement. The formulation stayed otherwise the same. As such, all of the preservatives were tested in combination with EDTA.
(§2) Further studies to test use of potassium sorbate for efficacy as an antimicrobial preservative were carried out in the formula with potassium sorbate in order to confirm the minimum concentration of use and definition of the specification, furthering the American and European monographs, in order to meet the different regulatory requirements of the countries in which this new formula will be submitted. The stability studies were conducted for a period of 36 months.

The nature of data set [2]: Fraction of fexofenadine in zwitterion form at suspension pH. It counts as physicochemical. As to conditions: pH between 5.8 and 7.0. An excerpt: The conversion of anhydrous form to the zwitterion shape is controlled by the pH of the suspension, which is monitored throughout the manufacture of the product, and controlled by the addition of monobasic sodium phosphate buffers and dibasic sodium phosphate.

Data set [3] concerns Bacteria; Fungus and yeast. Nature of the data set: Preservative efficacy test, criteria of the US Pharmacopoeia (USP <51>). It is filed as cell-based. The note with it: American pharmacopoeia criteria. The procedure:
as §1, §2

Data set [4] relates to Bacteria; Fungus and yeast. Nature of the data set: Preservative efficacy test, criteria of the European pharmacopoeia (Ph. Eur 5.1.3). It counts as cell-based. Here is the method:
as §1, §2

The conditions of data set [5]: stability studies conducted for 36 months. The procedure:
as §2

On to `CCCCCCCCCCCC[N+](C)(C)CCOc1ccccc1` [Domiphen bromide], for which the “preservative system efficacy test (PET) results” value in data set [1] was “good”.

Turning to `CC(C)(C(=O)O)c1ccc(C(O)CCCN2CCC(C(O)(c3ccccc3)c3ccccc3)CC2)cc1.Cl` (stereo not drawn) [Fexofenadine, 4-[1-hydroxy-4-[4-(hydroxydiphenylmethyl)-1-piperidinyl]-butyl]-α,α-dimethyl benzeneacetic acid hydrochloride], the “fexofenadine in the form of zwitterion” value in data set [2] was determined as 97%. As to `C/C=C/C=C/C(=O)[O-].[K+]` [Potassium sorbate], the “point of failure (concentration)” value is on record as 0.10 in data set [3] and 0.3% in data set [4]. For the same molecule, the “effective as preservative until (stability time)” value in data set [5] is 36 months. For the same molecule, the “concentration considered effective as a preservative” value in data set [1] (criteria of both pharmacopoeias, fexofenadine suspension with EDTA) is on record as 0.4%.

Regarding `O=C([O-])c1ccccc1.[Na+]` [Sodium Benzoate, Sodium benzoate], the “preservative system efficacy test (PET) results” value in data set [1] is recorded as “satisfactory”.
